Results: ChEMBL document CHEMBL4828725 (Eur J Med Chem, 2021)

Tests used:
Helix pomatia = assay: Inhibition of snail beta-mannosidase using p-nitrophenyl glycoside as substrate assessed as release of p-nitrophenol at 1000 uM measured by spectrometric assay relative to control
[1] = Inhibition of rat intestinal maltase using maltose as substrate assessed as release of D-glucose measured by spectrometric assay
Beta-glucuronidase = Beta-glucuronidase (Escherichia coli (strain K12), UniProt P05804); assay: Inhibition of Escherichia coli beta-glucuronidase using p-nitrophenyl glycoside as substrate assessed as release of p-nitrophenol measured by spectrometric assay
[2] = Inhibition of Aspergillus niger amyloglucosidase using p-nitrophenyl glycoside as substrate assessed as release of p-nitrophenol measured by spectrometric assay
[3] = target: T1, Sucrase-isomaltase, intestinal (Rattus norvegicus, UniProt P23739); assay: Inhibition of rat intestinal sucrase using p-nitrophenyl glycoside as substrate assessed as release of p-nitrophenol measured by spectrometric assay; conditions: read-out: IC50
Penicillium decumbens = assay: Inhibition of Penicillium decumbens alpha-L-rhamnosidase using p-nitrophenyl glycoside as substrate assessed as release of p-nitrophenol at 1000 uM measured by spectrometric assay relative to control
Bos taurus [4] = species: Bos taurus; assay: Inhibition of bovine liver beta-glucosidase using p-nitrophenyl glycoside as substrate assessed as release of p-nitrophenol at 1000 uM measured by spectrometric assay relative to control; type: tissue-based
[5] = Inhibition of bovine liver beta-glucosidase using p-nitrophenyl glycoside as substrate assessed as release of p-nitrophenol measured by spectrometric assay; parameters: species or system Bos taurus
[6] = Inhibition of bovine liver beta-galactosidase using p-nitrophenyl glycoside as substrate assessed as release of p-nitrophenol measured by spectrometric assay; type: tissue-based, Bos taurus
[7] = Inhibition of rice alpha-glucosidase using p-nitrophenyl glycoside as substrate assessed as release of p-nitrophenol measured by spectrometric assay; parameters: species or system Oryza sativa
[8] = Inhibition of Penicillium decumbens alpha-L-rhamnosidase using p-nitrophenyl glycoside as substrate assessed as release of p-nitrophenol measured by spectrometric assay
[9] = Inhibition of porcine kidney alpha-trehalase using p-nitrophenyl glycoside as substrate assessed as release of p-nitrophenol measured by spectrometric assay; parameters: species or system Sus scrofa
[10] = Inhibition of snail beta-mannosidase using p-nitrophenyl glycoside as substrate assessed as release of p-nitrophenol measured by spectrometric assay; parameters: species or system Helix pomatia
Prunus dulcis = assay: Inhibition of almond beta-glucosidase using p-nitrophenyl glycoside as substrate assessed as release of p-nitrophenol at 1000 uM measured by spectrometric assay relative to control
[11] = target: T2, Alpha-mannosidase (Canavalia ensiformis) (UniProt C0HJB3); assay: Inhibition of jack bean alpha-mannosidase using p-nitrophenyl glycoside as substrate assessed as release of p-nitrophenol at 1000 uM measured by spectrometric assay relative to control
T2 sequence (whole entry): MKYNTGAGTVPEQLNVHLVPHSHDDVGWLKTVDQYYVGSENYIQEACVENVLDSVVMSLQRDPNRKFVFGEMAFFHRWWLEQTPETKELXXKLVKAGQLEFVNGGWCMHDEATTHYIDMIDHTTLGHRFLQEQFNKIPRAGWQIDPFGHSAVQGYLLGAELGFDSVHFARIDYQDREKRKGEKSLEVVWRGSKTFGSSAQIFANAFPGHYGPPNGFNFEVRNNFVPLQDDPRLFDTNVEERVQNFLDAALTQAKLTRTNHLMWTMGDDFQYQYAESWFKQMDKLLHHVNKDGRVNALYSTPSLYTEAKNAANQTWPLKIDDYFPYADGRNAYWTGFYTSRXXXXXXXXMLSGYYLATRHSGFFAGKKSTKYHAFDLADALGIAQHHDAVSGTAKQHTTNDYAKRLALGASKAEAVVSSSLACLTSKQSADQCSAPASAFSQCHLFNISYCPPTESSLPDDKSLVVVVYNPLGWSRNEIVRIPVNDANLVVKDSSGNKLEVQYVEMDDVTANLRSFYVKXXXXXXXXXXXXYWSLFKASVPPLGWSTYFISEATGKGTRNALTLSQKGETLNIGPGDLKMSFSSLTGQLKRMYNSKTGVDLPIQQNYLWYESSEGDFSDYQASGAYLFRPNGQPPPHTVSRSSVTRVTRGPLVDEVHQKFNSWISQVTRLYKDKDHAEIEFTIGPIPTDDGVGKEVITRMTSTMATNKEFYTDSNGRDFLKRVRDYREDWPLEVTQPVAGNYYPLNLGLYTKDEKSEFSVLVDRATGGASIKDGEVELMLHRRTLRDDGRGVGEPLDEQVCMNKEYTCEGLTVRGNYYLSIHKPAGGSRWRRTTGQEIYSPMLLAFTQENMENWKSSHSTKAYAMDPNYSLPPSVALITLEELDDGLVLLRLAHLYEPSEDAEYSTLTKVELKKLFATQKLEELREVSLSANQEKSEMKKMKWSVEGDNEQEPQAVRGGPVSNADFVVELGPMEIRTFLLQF

[12] = target: Beta-glucuronidase (Escherichia coli (strain K12)) (UniProt P05804); assay: Inhibition of Escherichia coli beta-glucuronidase using p-nitrophenyl glycoside as substrate assessed as release of p-nitrophenol at 1000 uM measured by spectrometric assay relative to control
[13] = target: T3, Tissue alpha-L-fucosidase (Bos taurus) (UniProt Q2KIM0); assay: Inhibition of bovine kidney alpha-L-fucosidase using p-nitrophenyl glycoside as substrate assessed as release of p-nitrophenol at 1000 uM measured by spectrometric assay relative to control; type: tissue-based
T3 sequence (whole entry): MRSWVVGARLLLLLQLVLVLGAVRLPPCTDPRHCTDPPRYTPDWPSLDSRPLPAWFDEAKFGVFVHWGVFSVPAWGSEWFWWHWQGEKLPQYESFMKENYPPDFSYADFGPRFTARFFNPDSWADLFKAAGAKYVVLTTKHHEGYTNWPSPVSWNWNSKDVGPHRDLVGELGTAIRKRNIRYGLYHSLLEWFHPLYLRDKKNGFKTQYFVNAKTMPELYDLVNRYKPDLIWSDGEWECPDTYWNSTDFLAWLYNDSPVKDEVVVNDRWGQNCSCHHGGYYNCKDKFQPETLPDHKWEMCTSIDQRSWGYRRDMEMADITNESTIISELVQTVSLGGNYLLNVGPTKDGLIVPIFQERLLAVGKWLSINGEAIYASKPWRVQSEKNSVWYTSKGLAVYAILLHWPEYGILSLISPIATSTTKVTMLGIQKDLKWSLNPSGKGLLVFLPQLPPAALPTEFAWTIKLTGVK

[14] = Inhibition of almond beta-glucosidase using p-nitrophenyl glycoside as substrate assessed as release of p-nitrophenol measured by spectrometric assay; parameters: species or system Prunus dulcis
[15] = target: T1, Sucrase-isomaltase, intestinal; assay: Inhibition of rat intestinal isomaltase using p-nitrophenyl glycoside as substrate assessed as release of p-nitrophenol measured by spectrometric assay; conditions: read-out: IC50
Bos taurus [16] = species: Bos taurus; assay: Inhibition of bovine liver beta-galactosidase using p-nitrophenyl glycoside as substrate assessed as release of p-nitrophenol at 1000 uM measured by spectrometric assay relative to control
[17] = target: T4, Tissue alpha-L-fucosidase (Bos taurus, UniProt Q2KIM0); assay: Inhibition of bovine kidney alpha-L-fucosidase using p-nitrophenyl glycoside as substrate assessed as release of p-nitrophenol measured by spectrometric assay
T4 sequence (Q2KIM0 whole entry): T3 sequence (whole entry)

Aspergillus niger = assay: Inhibition of Aspergillus niger amyloglucosidase using p-nitrophenyl glycoside as substrate assessed as release of p-nitrophenol at 1000 uM measured by spectrometric assay relative to control
Sus scrofa = species: Sus scrofa; assay: Inhibition of porcine kidney alpha-trehalase using p-nitrophenyl glycoside as substrate assessed as release of p-nitrophenol at 1000 uM measured by spectrometric assay relative to control
[18] = Inhibition of jack bean alpha-mannosidase using p-nitrophenyl glycoside as substrate assessed as release of p-nitrophenol measured by spectrometric assay; parameters: species or system Canavalia ensiformis
Alpha-galactosidase = Alpha-galactosidase (Coffea arabica, UniProt Q42656); assay: Inhibition of coffee beans alpha-galactosidase using p-nitrophenyl glycoside as substrate assessed as release of p-nitrophenol measured by spectrometric assay
Sequence of Alpha-galactosidase (Q42656 whole entry): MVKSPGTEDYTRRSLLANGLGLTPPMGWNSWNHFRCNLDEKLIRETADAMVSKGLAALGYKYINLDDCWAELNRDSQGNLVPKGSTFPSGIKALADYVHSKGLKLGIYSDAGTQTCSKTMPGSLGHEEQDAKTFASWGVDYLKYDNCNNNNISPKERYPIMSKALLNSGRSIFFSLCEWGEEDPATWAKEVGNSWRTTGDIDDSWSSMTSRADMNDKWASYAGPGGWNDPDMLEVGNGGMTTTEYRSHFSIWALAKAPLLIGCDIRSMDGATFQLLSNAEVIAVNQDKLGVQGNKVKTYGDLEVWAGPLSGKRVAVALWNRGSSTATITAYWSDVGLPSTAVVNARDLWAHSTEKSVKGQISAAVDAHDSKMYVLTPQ

Sequence of Beta-glucuronidase (P05804 whole entry): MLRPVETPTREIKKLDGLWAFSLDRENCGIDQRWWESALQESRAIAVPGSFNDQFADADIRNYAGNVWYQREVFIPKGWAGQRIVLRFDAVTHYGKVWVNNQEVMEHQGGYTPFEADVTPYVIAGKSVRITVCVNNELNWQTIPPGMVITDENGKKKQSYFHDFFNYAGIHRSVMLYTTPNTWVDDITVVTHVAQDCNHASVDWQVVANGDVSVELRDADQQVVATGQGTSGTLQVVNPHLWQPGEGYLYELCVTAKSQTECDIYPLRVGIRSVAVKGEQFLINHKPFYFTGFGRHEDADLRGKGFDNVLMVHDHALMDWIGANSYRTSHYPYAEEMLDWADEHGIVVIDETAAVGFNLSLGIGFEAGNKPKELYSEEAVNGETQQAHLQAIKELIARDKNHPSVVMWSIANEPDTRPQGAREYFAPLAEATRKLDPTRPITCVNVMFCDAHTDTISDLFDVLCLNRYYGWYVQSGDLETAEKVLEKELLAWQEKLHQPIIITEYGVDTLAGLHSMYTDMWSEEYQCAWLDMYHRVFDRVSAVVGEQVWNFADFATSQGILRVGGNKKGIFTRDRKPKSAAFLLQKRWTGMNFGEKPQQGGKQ
Sequence of Beta-glucuronidase (Escherichia coli (strain K12)) (P05804 whole entry, looked up): as the sequence (P05804 whole entry) above
T1 sequence (P23739 1-1013 limits assumed): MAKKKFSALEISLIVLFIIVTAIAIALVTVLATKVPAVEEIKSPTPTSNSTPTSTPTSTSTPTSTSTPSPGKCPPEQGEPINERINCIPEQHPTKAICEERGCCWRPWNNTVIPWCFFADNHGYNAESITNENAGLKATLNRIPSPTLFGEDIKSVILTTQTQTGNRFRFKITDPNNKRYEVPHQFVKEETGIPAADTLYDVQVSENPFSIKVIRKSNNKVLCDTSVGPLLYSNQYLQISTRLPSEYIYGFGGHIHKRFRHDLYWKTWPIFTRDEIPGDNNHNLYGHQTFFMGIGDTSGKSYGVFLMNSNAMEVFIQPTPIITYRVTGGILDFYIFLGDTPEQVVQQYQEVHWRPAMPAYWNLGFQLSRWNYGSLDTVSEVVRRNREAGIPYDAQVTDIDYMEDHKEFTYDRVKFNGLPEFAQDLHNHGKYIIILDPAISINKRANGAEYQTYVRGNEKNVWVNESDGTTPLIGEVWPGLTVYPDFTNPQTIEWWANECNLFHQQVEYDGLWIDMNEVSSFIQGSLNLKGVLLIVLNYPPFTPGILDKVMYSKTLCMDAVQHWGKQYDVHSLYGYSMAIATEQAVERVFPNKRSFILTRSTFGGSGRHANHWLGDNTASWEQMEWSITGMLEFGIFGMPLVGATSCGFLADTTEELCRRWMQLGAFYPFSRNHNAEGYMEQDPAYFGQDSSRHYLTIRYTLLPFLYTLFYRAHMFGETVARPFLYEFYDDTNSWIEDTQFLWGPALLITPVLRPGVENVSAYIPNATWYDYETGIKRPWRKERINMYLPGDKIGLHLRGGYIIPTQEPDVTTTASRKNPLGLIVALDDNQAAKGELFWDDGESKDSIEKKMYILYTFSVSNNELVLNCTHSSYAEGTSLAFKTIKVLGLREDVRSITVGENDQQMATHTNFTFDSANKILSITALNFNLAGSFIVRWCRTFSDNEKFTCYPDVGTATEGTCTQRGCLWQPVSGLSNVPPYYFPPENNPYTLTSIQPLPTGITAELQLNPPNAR
T1 sequence (P23739 1014-1841 limits assumed): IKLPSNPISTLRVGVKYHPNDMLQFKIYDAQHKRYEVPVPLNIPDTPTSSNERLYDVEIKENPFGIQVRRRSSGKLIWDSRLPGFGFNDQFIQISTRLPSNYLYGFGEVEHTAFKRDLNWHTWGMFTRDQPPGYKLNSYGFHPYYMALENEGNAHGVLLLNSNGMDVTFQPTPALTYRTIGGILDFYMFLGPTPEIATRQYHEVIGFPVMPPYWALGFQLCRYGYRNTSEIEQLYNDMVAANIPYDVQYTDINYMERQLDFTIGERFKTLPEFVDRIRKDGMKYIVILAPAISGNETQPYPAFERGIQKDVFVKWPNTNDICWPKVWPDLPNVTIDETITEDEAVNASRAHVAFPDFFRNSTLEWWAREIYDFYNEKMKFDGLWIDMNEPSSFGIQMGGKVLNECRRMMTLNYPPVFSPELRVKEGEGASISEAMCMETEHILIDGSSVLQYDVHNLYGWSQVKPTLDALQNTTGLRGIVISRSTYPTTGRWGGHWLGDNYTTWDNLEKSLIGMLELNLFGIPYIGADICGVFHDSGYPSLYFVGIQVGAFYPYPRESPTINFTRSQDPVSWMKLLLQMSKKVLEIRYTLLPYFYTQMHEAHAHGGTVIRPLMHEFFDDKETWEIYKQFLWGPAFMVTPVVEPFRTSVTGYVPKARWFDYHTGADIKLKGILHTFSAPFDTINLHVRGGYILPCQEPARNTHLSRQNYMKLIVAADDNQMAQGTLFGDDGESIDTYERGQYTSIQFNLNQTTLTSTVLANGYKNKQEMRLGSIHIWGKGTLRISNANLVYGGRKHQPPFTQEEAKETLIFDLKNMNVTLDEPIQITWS

Row | Structure (SMILES) | inhibition (Helix pomatia) | IC50 [1] | IC50 (Beta-glucuronidase) | IC50 [2] | IC50 [3] | inhibition (Penicillium decumbens) | IC50 ([7]; read-out: IC50) | IC50 [8] | IC50 [9] | IC50 [10] | inhibition (Prunus dulcis) | inhibition [11] | inhibition [13] | IC50 [14] | IC50 [15] | IC50 [17] | inhibition (Aspergillus niger) | inhibition (Sus scrofa) | IC50 [18] | IC50 (Alpha-galactosidase; read-out: IC50) | also measured
1 | CCCCCCCCCCCC[C@]1(CO)NC[C@H](O)[C@@H](O)[C@@H]1O.Cl | 1.5% | 0.07 µM | Not Active | Not Active | 1.2 µM | 0.3% | 0.024 µM | Not Active | Not Active | Not Active | 10% | 7.9% | 16% | Not Active | 7.8 µM | Not Active | 10.7% | 4.8% | Not Active | 10 µM | inhibition (Bos taurus [4]): 25%; IC50 [5]: Not Active; IC50 [6]: Not Active; inhibition [12]: 16.5%; inhibition (Bos taurus [16]): 48.4%
2 | CCCCCCCCCCC[C@]1(CO)NC[C@H](O)[C@@H](O)[C@@H]1O.Cl | 0% | 0.032 µM | Not Active | Not Active | 0.19 µM | 4.5% | 0.02 µM | Not Active | Not Active | Not Active | 10% | 2.1% | 6.6% | Not Active | 1.1 µM | Not Active | 0% | 20.3% | Not Active | 3.6 µM | inhibition (Bos taurus [4]): 3.7%; IC50 [5]: Not Active; IC50 ([6]; read-out: IC50): 70 µM; inhibition [12]: 25.2%
3 | CCCCCCCCCC[C@]1(CO)NC[C@H](O)[C@@H](O)[C@@H]1O.Cl | 0% | 0.12 µM | Not Active | Not Active | 1.7 µM | 0% | 0.033 µM | Not Active | Not Active | Not Active | 10% | 4.3% | 0.9% | Not Active | 13 µM | Not Active | 9.2% | 5.7% | Not Active | 18 µM | IC50 ([5]; read-out: IC50): 21 µM; inhibition [12]: 24.4%
4 | OC[C@@H]1NC[C@H](O)[C@@H](O)[C@@H]1O |  | 8.4 µM | Not Active | Not Active |  |  |  | Not Active | Not Active | Not Active |  |  |  | Not Active |  | Not Active |  |  | Not Active |  | IC50 [5]: Not Active; IC50 [6]: Not Active; IC50 [7]: Not Active; IC50 (Alpha-galactosidase): Not Active
5 | CCCCCCC[C@]1(CO)NC[C@H](O)[C@@H](O)[C@@H]1O.Cl | 8.5% | 0.036 µM |  | Not Active | 0.23 µM | 0% | 0.05 µM | Not Active | Not Active | Not Active | 36.3% | 17.3% | 45.9% | Not Active | 0.55 µM | Not Active | 12.2% | 12.9% | Not Active | 109 µM | IC50 (Beta-glucuronidase; read-out: IC50): 28 µM; inhibition (Bos taurus [4]): 20.5%; IC50 [5]: Not Active; IC50 [6]: Not Active; inhibition (Bos taurus [16]): 29%
6 | CCCCCCCCC[C@]1(CO)NC[C@H](O)[C@@H](O)[C@@H]1O.Cl | 2.5% | 0.12 µM |  | Not Active | 0.45 µM | 9.1% | 0.028 µM | Not Active |  | Not Active | 41.7% | 10.7% | 25.3% | Not Active | 1.7 µM | Not Active | 14.1% |  | Not Active | 15 µM | IC50 (Beta-glucuronidase; read-out: IC50): 158 µM; IC50 ([5]; read-out: IC50): 211 µM; IC50 ([6]; read-out: IC50): 68 µM; IC50 ([9]; read-out: IC50): 494 µM
7 | CCCC[C@]1(CO)NC[C@H](O)[C@@H](O)[C@@H]1O.Cl | 16.5% | 0.17 µM |  | Not Active | 0.56 µM | 16.3% | 0.14 µM | Not Active | Not Active | Not Active | 36.6% | 6.6% | 10.3% | Not Active | 2.6 µM | Not Active | 17.1% | 33.5% | Not Active | 58 µM | IC50 (Beta-glucuronidase; read-out: IC50): 679 µM; IC50 ([5]; read-out: IC50): 315 µM; IC50 ([6]; read-out: IC50): 127 µM
